Source: PubChem BioAssay (NCI)
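Test compounds were applied to cells in 96-well plates for 48 hours at 5 doses. GI50 = concentration required for 50% inhibition of growth. The concentration for full growth arrest is given as TGI.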

Legend:
Experiment in all cases: NCI tumour cell line growth inhibition, 48 h; in the data active = GI50 below about 0.43 µM; inactive = the rest
[1] = test system: SNB-75 CNS
[2] = test system: DU-145 prostate
[3] = test system: A549 NSCLC
[4] = test system: K-562 leukemia
[5] = test system: MDA-MB-435
[6] = test system: NCI-H460 lung
[7] = test system: OVCAR-5 ovarian
[8] = test system: EKVX NSCLC
[9] = test system: OVCAR-4 ovarian
[10] = test system: HCC-2998 colon

CC1NCCC(CC(=O)O)C1CC(=O)O (stereo not drawn)
> 100 µM: TGI [1] | TGI [2] | TGI [3] | TGI [4] | TGI [5] | TGI [6] | TGI [7] | TGI [8] | TGI [9] | TGI [10]

OCC1OC(N2CCN(C3OC(CO)C(O)C(O)C3O)CC2)C(O)C(O)C1O (stereo not drawn)
> 100 µM: TGI [1] | TGI [2] | TGI [3] | TGI [4] | TGI [5] | TGI [6] | TGI [7] | TGI [8] | TGI [9] | TGI [10]

CC(=O)Nc1ccc2c(c1)[nH]c(=O)c1cc(NC(C)=O)ccc12
inactive: GI50 [1] 41.2 µM | GI50 [2] > 100 µM | GI50 [3] > 100 µM | GI50 [4] 59.5 µM | GI50 [5] > 100 µM | GI50 [6] > 100 µM | GI50 [7] > 100 µM | GI50 [8] > 100 µM | GI50 [9] > 100 µM | GI50 [10] > 100 µM
> 100 µM: TGI [1] | TGI [2] | TGI [3] | TGI [4] | TGI [5] | TGI [6] | TGI [7] | TGI [8] | TGI [9] | TGI [10]

CCN1C(=O)N(CC)C2C1NN=c1s/c(=C\c3ccc(Br)cc3)c(=O)n12 (stereo not drawn)
> 100 µM: TGI [1] | TGI [2] | TGI [3] | TGI [4] | TGI [6] | TGI [7] | TGI [8] | TGI [9] | TGI [10]
inactive: GI50 [7] 0.583 µM | GI50 [8] 0.502 µM
active: GI50 [1] 0.0808 µM | GI50 [2] 0.352 µM | GI50 [3] 0.313 µM | GI50 [4] 0.0453 µM | GI50 [5] 0.0252 µM | GI50 [6] 0.119 µM | GI50 [9] 0.388 µM | GI50 [10] 0.349 µM
0.0706 µM: TGI [5]

COc1ccc2c(c1)C(=O)CC(C(N)=O)C2 (stereo not drawn)
> 100 µM: TGI [1] | TGI [2] | TGI [3] | TGI [4] | TGI [5] | TGI [6] | TGI [7] | TGI [8] | TGI [9] | TGI [10]

Cn1cc(-c2nc(-c3c[nH]c4ccccc34)cs2)c2cccnc21
0.779 µM: TGI [1]
active: GI50 [1] 0.161 µM | GI50 [4] 0.106 µM | GI50 [5] 0.0321 µM | GI50 [6] 0.339 µM
0.25 µM: TGI [5]
inactive: GI50 [2] 0.564 µM | GI50 [3] 0.608 µM | GI50 [7] 2.11 µM | GI50 [8] 0.907 µM | GI50 [9] 0.756 µM | GI50 [10] 0.844 µM
> 60.4 µM: TGI [9]
> 100 µM: TGI [2] | TGI [3] | TGI [4] | TGI [6] | TGI [7] | TGI [8]
> 79.7 µM: TGI [10]

Cc1ccccc1N=C(c1ccccc1)C1C(=O)c2ccccc2C1=O
14.8 µM: TGI [5]
54.2 µM: TGI [10]
87.6 µM: TGI [8]
38 µM: TGI [6]
inactive: GI50 [1] 23.4 µM | GI50 [2] 22.4 µM | GI50 [3] 12.3 µM | GI50 [4] 25.6 µM | GI50 [5] 3.44 µM | GI50 [6] 6.91 µM | GI50 [7] 24.6 µM | GI50 [8] 22.2 µM | GI50 [9] 20.4 µM | GI50 [10] 19.2 µM
> 100 µM: TGI [1] | TGI [3] | TGI [4] | TGI [7] | TGI [9]
69.6 µM: TGI [2]

O=C1NC(=O)/C(=C/c2ccc3nccc(-c4ccncc4)c3c2)S1
> 7.25 µM: TGI [5]
5.89 µM: TGI [9]
> 5.79 µM: TGI [2]
> 10 µM: TGI [4] | TGI [6]
inactive: GI50 [2] 0.431 µM | GI50 [3] 0.61 µM | GI50 [4] 1.89 µM | GI50 [6] 0.487 µM | GI50 [9] 0.503 µM
5.24 µM: TGI [3]
3.67 µM: TGI [8]
active: GI50 [1] 0.0518 µM | GI50 [5] 0.402 µM | GI50 [7] 0.326 µM | GI50 [8] 0.407 µM | GI50 [10] 0.35 µM
0.448 µM: TGI [1]
3.89 µM: TGI [7] | TGI [10]

O=[N+]([O-])c1ccc(NC(c2ccccc2)c2ccc3cccnc3c2O)cc1 (stereo not drawn)
active: GI50 [4] 0.376 µM | GI50 [5] 0.422 µM | GI50 [6] 0.253 µM | GI50 [8] 0.393 µM | GI50 [9] 0.331 µM | GI50 [10] 0.418 µM
inactive: GI50 [1] 1.63 µM | GI50 [2] 0.483 µM | GI50 [3] 0.878 µM | GI50 [7] 1.77 µM
> 100 µM: TGI [1] | TGI [2] | TGI [3] | TGI [4] | TGI [5] | TGI [7] | TGI [8] | TGI [9] | TGI [10]
1.39 µM: TGI [6]

COC1C[C@H](O[C@@H]2C[C@H](O[C@@H]3C[C@H](O[C@@H]4C(=O)c5c(cc6cc(O[C@H]7C[C@@H](O[C@H]8C[C@@H](O)[C@H](O)C(C)O8)[C@H](O)C(C)O7)c(C)c(O)c6c5O)C[C@H]4C(OC)C(=O)[C@@H](O)[C@@H](C)O)OC(C)[C@H]3O)OC(C)[C@@H]2O)OC(C)[C@@H]1O (stereo partly drawn)
> 32.5 µM: TGI [2] | TGI [3] | TGI [4] | TGI [6] | TGI [7]
0.615 µM: TGI [10]
10.3 µM: TGI [8]
active: GI50 [1] 0.0622 µM | GI50 [2] 0.125 µM | GI50 [3] 0.185 µM | GI50 [4] 0.119 µM | GI50 [5] 0.0949 µM | GI50 [6] 0.0802 µM | GI50 [7] 0.106 µM | GI50 [8] 0.122 µM | GI50 [9] 0.134 µM | GI50 [10] 0.0961 µM
0.45 µM: TGI [5]
0.442 µM: TGI [1]
2.76 µM: TGI [9]

c1ccc2cc(Cn3c(-c4cccc5ccccc45)[n+](Cc4ccc5ccccc5c4)c4c5ccccc5c5ccccc5c43)ccc2c1
> 100 µM: TGI [4]
1.19 µM: TGI [1]
1.59 µM: TGI [10]
1.41 µM: TGI [6] | TGI [9]
1.38 µM: TGI [5]
1.68 µM: TGI [2] | TGI [7]
1.66 µM: TGI [8]
active: GI50 [1] 0.261 µM | GI50 [2] 0.413 µM | GI50 [4] 0.224 µM | GI50 [5] 0.359 µM | GI50 [6] 0.254 µM | GI50 [7] 0.378 µM | GI50 [8] 0.268 µM | GI50 [9] 0.324 µM | GI50 [10] 0.328 µM

CN1CCN(CCCn2c3c(sc4ncccc43)c(=O)n3nnc(-c4ccccc4)c23)CC1
3.5 µM: TGI [5]
15.9 µM: TGI [7]
9.97 µM: TGI [10]
3.37 µM: TGI [6]
3.73 µM: TGI [9]
3.24 µM: TGI [2]
23.4 µM: TGI [1]
2.92 µM: TGI [3]
1.56 µM: TGI [4]
inactive: GI50 [1] 9.85 µM | GI50 [2] 1.67 µM | GI50 [3] 1.54 µM | GI50 [4] 0.593 µM | GI50 [5] 1.79 µM | GI50 [6] 1.65 µM | GI50 [7] 6.89 µM | GI50 [8] 2.08 µM | GI50 [9] 1.87 µM | GI50 [10] 5.12 µM
5.58 µM: TGI [8]

Cc1cccc(Nc2ncc(-c3ccccc3)o2)c1
> 25 µM: TGI [1] | TGI [2] | TGI [3] | TGI [4] | TGI [5] | TGI [6] | TGI [7] | TGI [8] | TGI [9] | TGI [10]
inactive: GI50 [1] > 25 µM | GI50 [2] > 25 µM | GI50 [3] > 25 µM | GI50 [4] > 25 µM | GI50 [5] > 25 µM | GI50 [6] > 25 µM | GI50 [7] > 25 µM | GI50 [8] > 25 µM | GI50 [9] > 25 µM | GI50 [10] > 25 µM
